Data published in US10131652B2, “Pyrimidinyloxy benzene derivatives as herbicides” (E. I. DU PONT DE NEMOURS AND COMPANY, priority 2014, dated 2018).

Columns and labels:
Format in all cases: in vivo
[1] = test system: barnyardgrass (Echinochloa crus-galli); test: Test C flooded paddy test plant response; details: Flood, 250 g ai/ha; scale of 0 to 100 where 0 is no effect and 100 is complete control; 13 to 15 days
In short: (§1)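 2-leaf plants; flood 3 cm, cpd into paddy water; greenhouse 13–15 d; visual score vs untreated, 0 = no effect, 100 = complete control; dash = no result.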

[2] = test system: rice (Oryza sativa); test: Test C flooded paddy test plant response; details: Flood, 250 g ai/ha; scale of 0 to 100 where 0 is no effect and 100 is complete control; 13 to 15 days
In short: as §1

[3] = test system: small-flower umbrella sedge (Cyperus difformis); test: Test C flooded paddy test plant response; details: Flood, 250 g ai/ha; scale of 0 to 100 where 0 is no effect and 100 is complete control; 13 to 15 days
In short: as §1

[4] = test system: ducksalad (Heteranthera limosa); test: Test C flooded paddy test plant response; details: Flood, 250 g ai/ha; scale of 0 to 100 where 0 is no effect and 100 is complete control; 13 to 15 days
In short: as §1

[5] = test system: waterhemp (common waterhemp, Amaranthus rudis); test: Test D pre-/postemergence plant response; details: Postemergence; for Plant response rating, Waterhemp: scale 0 to 100, 0 no effect, 100 complete control
In short: (§2)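 0 = no effect, 100 = complete control: plants were scored this way by visual comparison with controls 13 to 15 days post-treatment. Application was preemergence to sown loam/sand pots or postemergence to 2–18 cm seedlings in peat-based mix.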

[6] = test system: winter wheat (Triticum aestivum); test: Test D pre-/postemergence plant response; details: Postemergence; for Plant response rating, Wheat: scale 0 to 100, 0 no effect, 100 complete control
In short: as §2

[7] = test system: velvetleaf (Abutilon theophrasti); test: Test D pre-/postemergence plant response; details: Postemergence; for Plant response rating, Velvetleaf: scale 0 to 100, 0 no effect, 100 complete control
In short: as §2

[8] = test system: lambsquarters (Chenopodium album); test: Test D pre-/postemergence plant response; details: Postemergence; for Plant response rating, Lambsquarters: scale 0 to 100, 0 no effect, 100 complete control
In short: as §2

[9] = test system: morningglory (Ipomoea coccinea); test: Test D pre-/postemergence plant response; details: Postemergence; for Plant response rating, Morningglory: scale 0 to 100, 0 no effect, 100 complete control
In short: as §2

[10] = test system: johnsongrass (Sorghum halepense); test: Test D pre-/postemergence plant response; details: Postemergence; for Plant response rating, Johnsongrass: scale 0 to 100, 0 no effect, 100 complete control
In short: as §2

[11] = test system: soybean (Glycine max); test: Test D pre-/postemergence plant response; details: Postemergence; for Plant response rating, Soybean: scale 0 to 100, 0 no effect, 100 complete control
In short: as §2

[12] = test system: barnyardgrass (Echinochloa crus-galli); test: Test B pre-/postemergence plant response
In short: (§3)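 Evaluation is visual, about 10 days after application, rating injury from 0 (none) to 100 (complete control) relative to untreated controls. Application was a preemergence soil spray on seeded pots or a postemergence spray on one- to two-leaf plants.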

[13] = test system: pigweed (Amaranthus retroflexus); test: Test B pre-/postemergence plant response
In short: as §3

[14] = test system: wheat (Triticum aestivum); test: Test B pre-/postemergence plant response; details: 125 g ai/ha, postemergence; 0 to 100 scale, 0 no effect, 100 complete control
In short: as §3

[15] = test system: corn (Zea mays); test: Test B pre-/postemergence plant response; details: 0 to 100 scale, 0 no effect, 100 complete control
In short: as §3

[16] = test system: giant foxtail (Setaria faberii); test: Test B pre-/postemergence plant response
In short: as §3

[17] = 31 g ai/ha, scale 0 to 100 (0 no effect, 100 complete control)
[18] = 31 g ai/ha, Postemergence, 0 to 100 scale, 0 no effect, 100 complete control
[19] = 31 g ai/ha, Preemergence, 0 to 100 scale where 0 is no effect and 100 is complete control
[20] = 125 g ai/ha, postemergence, 0 to 100 scale, 0 no effect, 100 complete control
[21] = Preemergence, 125 g ai/ha, 0 to 100 scale (0 no effect, 100 complete control)

## Fc1cccc(Oc2ncc(Cl)cn2)c1-c1cc(C2CC2)on1 [Compound 130]
[1]
  Barnyardgrass plant response rating: 65
[2]
  Rice plant response rating: 30
[3]
  Sedge, Umbrella plant response rating: 90
[4]
  Ducksalad plant response rating: 90
[5]; [17]
  Waterhemp plant response rating: 85
[5]; 62 g ai/ha
  Plant response rating, Waterhemp: 98
[5]; 125 g ai/ha
  Plant response rating, Waterhemp: 98
[6]; [17]
  Wheat plant response rating: 5
[6]; 62 g ai/ha
  Plant response rating, Wheat: 30
[6]; 125 g ai/ha
  Plant response rating, Wheat: 35
[7]; [17]
  Velvetleaf plant response rating: 80
[7]; 62 g ai/ha
  Plant response rating, Velvetleaf: 75
[7]; 125 g ai/ha
  Plant response rating, Velvetleaf: 100
[8]; [17]
  Lambsquarters plant response rating: 100
[8]; 62 g ai/ha
  Plant response rating, Lambsquarters: 100
[8]; 125 g ai/ha
  Plant response rating, Lambsquarters: 100
[9]; [17]
  Morningglory plant response rating: 80
[9]; 62 g ai/ha
  Plant response rating, Morningglory: 85
[9]; 125 g ai/ha
  Plant response rating, Morningglory: 85
[10]; [17]
  Johnsongrass plant response rating: 5
[10]; 62 g ai/ha
  Plant response rating, Johnsongrass: 5
[10]; 125 g ai/ha
  Plant response rating, Johnsongrass: 10
[11]; [17]
  Soybean plant response rating: 55
[11]; 62 g ai/ha
  Plant response rating, Soybean: 98
[11]; 125 g ai/ha
  Plant response rating, Soybean: 95
[12]; [18]
  Plant response rating, Barnyardgrass: 40
[12]; [19]
  Plant response rating, Barnyardgrass: 50
[12]; [20]
  Plant response rating, Barnyardgrass: 100
[12]; [21]
  Barnyardgrass plant response rating: 90
[13]; [19]
  Plant response rating, Pigweed: 100
[13]; [20]
  Plant response rating, Pigweed: 100
[13]; [21]
  Pigweed plant response rating: 100
[14]
  Plant response rating, Wheat: 40
[15]; 31 g ai/ha, Postemergence
  Plant response rating, Corn: 20
[15]; 125 g ai/ha, postemergence
  Plant response rating, Corn: 40
[16]; [18]
  Plant response rating, Foxtail, Giant: 50
[16]; [19]
  Plant response rating, Foxtail, Giant: 90
[16]; [20]
  Plant response rating, Foxtail, Giant: 80
[16]; [21]
  Foxtail, Giant plant response rating: 100
